Measurements taken from PMC10586260 (ACS Omega, 2023).
Values joined by “and” are separate entries in the source; they are usually repeats but may differ in a detail not shown here. Equal values may be shown once. “Also recorded” adds a separate entry of the source. Read-outs that look alike come from different tables or passages of the source.

Columns and labels:
[1] = tested on: Pf3D7; test: SYBR green I antiplasmodial growth inhibition assay; assay type: cell-based; conditions: Plasmodium falciparum
[2] = MTT cytotoxicity assay; assay type: cell-based, Human; conditions: human, HEK293 cells
[3] = tested on: PfCam3.1^R539T (MRA1240); test: SYBR green I antiplasmodial growth inhibition assay; assay type: cell-based; conditions: Plasmodium falciparum
[4] = MTT cytotoxicity assay; assay type: cell-based, Human; conditions: human, HUH-7 cells
[5] = tested on: PfINDO; test: SYBR green I antiplasmodial growth inhibition assay; assay type: cell-based; conditions: Plasmodium falciparum
[6] = target: T1, PfGAP50 (Plasmodium falciparum, UniProt Q8I2X3); test: Surface plasmon resonance, PfGAP50 immobilized on CM5 chip, 1:1 binding model; conditions: KD (SPR, GAP50), 1:1 Langmuir binding model
T1 sequence (Q8I2X3 24-365 limits assumed): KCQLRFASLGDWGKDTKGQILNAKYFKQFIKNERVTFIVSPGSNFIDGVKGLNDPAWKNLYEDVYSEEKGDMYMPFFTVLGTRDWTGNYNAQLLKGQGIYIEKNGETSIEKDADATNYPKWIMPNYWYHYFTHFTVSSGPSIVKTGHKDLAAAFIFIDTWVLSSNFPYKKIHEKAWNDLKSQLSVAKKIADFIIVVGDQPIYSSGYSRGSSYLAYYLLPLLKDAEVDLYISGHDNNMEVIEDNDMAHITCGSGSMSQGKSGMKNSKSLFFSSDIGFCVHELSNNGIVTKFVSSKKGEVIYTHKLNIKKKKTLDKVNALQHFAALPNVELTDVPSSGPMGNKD

[7] = tested on: PfINDO late schizonts; test: Egress/invasion inhibition assay; assay type: cell-based, Plasmodium falciparum; conditions: segmental schizonts, 8 h at 2× IC50, then 48 h drug free
[8] = 700 mg dosage in humans, MDR-TB treatment; cited from earlier work
[9] = tested on: P. bergheiANKA; test: In vivo antimalarial study; design: species or system mice; conditions: 50 mg/kg oral, 4 consecutive days
[10] = tested on: P. falciparum (MRA1240); test: Fixed-ratio drug combination assay; assay type: cell-based, Plasmodium falciparum; conditions: in combination with PYR, MFQ, and ART
[11] = tested on: P. falciparum strains (Pf3D7, PfINDO, PfCam3.1^R539T); test: SYBR green I antiplasmodial assay, several strains stated together; assay type: cell-based; conditions: Plasmodium falciparum, read-out: IC50s against all three strains of Plasmodium
[12] = tested on: PfCam3.1^R539T early rings (0–3 h p.i.); test: Ring-stage survival assay; assay type: cell-based, Plasmodium falciparum; conditions: 10× IC50, 6 h treatment, 66 h recovery
[13] = tested on: PfINDO; test: Giemsa microscopy of parasite morphology after treatment at IC50; assay type: cell-based, Plasmodium falciparum; conditions: ring-stage parasites (6–12 h p.i.) treated at IC50 up to 57 h
[14] = tested on: HEK293; test: MTT cytotoxicity assay; assay type: cell-based, Human; conditions: for selectivity index for P. falciparum parasites: human kidney and liver cell lines vs parasite; for Selectivity index A: CC50 HEK293/IC50PfINDO
[15] = tested on: HUH-7; test: MTT cytotoxicity assay; assay type: cell-based, Human; conditions: CC50PfHUH7/IC50PfINDO
[16] = 3D7, read-out: IC50 (nM) against Pf strains 3D7
[17] = read-out: IC50 (nM) against Pf strains Cam3.1^R539T
[18] = read-out: IC50 (nM) against Pf strains INDO

| Structure (SMILES) | IC50 [1, 16] [nM] | CC50 at 24 h [2] [nM] | IC50 [3, 17] [nM] | CC50 at 24 h [4] [nM] | IC50 [5, 18] [nM] | Kd [6] | effect on merozoite egress and invasion [7] | interaction by average ∑FIC [10] | IC50 [11] [nM] | effect on parasite morphology and development [13] | selectivity index for P. falciparum parasites [14] [fold] | further results |
| --- | --- | --- | --- | --- | --- | --- | --- | --- | --- | --- | --- | --- |
| C[C@@H]1CC[C@H]2[C@@H](C)C(=O)O[C@@H]3O[C@@]4(C)CC[C@@H]1[C@]32OO4 [Artemisinin] | 13 ± 4 | > 100000 | 15 ± 2 | > 100000 | 10 ± 2 | – | – | – | – | – | – | – |
| COc1nc2ccc(Br)cc2cc1[C@@H](c1ccccc1)[C@@](O)(CCN(C)C)c1cccc2ccccc12 [Bedaquiline, (1R,2S)-1-(6-bromo-2-methoxyquinolin-3-yl)-4-(dimethylamino)-2-naphthalen-1-yl-1-phenylbutan-2-ol] | 1210 ± 22.4 | > 400000 | 769 ± 73.6 | > 400000 | – | < 75000 nM and 9270 nM | schizontocidal activity; also recorded: completely prevented invasion/schizont rupture | additive (∑FIC 1–2.0) | ≤ 1500 | permitted parasites to develop normally while preventing merozoites from invading | – | Cmax [8]: 6470 ng/mL; mice surviving / cured [9]: three out of seven; suppression of % parasitemia [9]: substantial suppression of parasitemia; also recorded: complete suppression of % parasitemia by day 19; effect on early rings in RSA [12]: showed activity against early rings |
| N=C(N)NCCCCC(=O)Nc1cc(C(F)(F)F)cc(NC(=O)c2cc(C(=O)Nc3cc(C(F)(F)F)cc(NC(=O)CCCCNC(=N)N)c3O[C@@H]3CCNC3)ncn2)c1O[C@@H]1CCNC1 [Brilacidin, 4-N,6-N-bis[3-(5-carbamimidamidopentanoylamino)-2-[(3R)-pyrrolidin-3-yl]oxy-5-(trifluoromethyl)phenyl]pyrimidine-4,6-dicarboxamide] | 405 ± 63 | > 200000 | 728 ± 65.2 | > 200000 | 634 ± 153 | < 75000 nM and 2810 nM | completely prevented invasion/schizont rupture | additive (∑FIC 1–2.0) | ≤ 1500 | partial suppression of invasion | > 100 | effect on early rings in RSA [12]: cause retardation in the growth cycle but are not able to kill early rings |
| CCN(CC)CCCC(C)Nc1ccnc2cc(Cl)ccc12 (centres unmarked) [Chloroquine] | 14 ± 5 | 45700 ± 3120 | 55 ± 4 | 58500 ± 4730 | 290 ± 20 | – | – | – | – | – | – | Selectivity index A [14]: 157.55; Selectivity index B [15]: 201.86 |
| Oc1cccc(C(Nc2nccs2)c2ccc3cccnc3c2O)c1 (centres unmarked) [MMV642550, 7-[(3-hydroxyphenyl)-(1,3-thiazol-2-ylamino)methyl]quinolin-8-ol] | 393 ± 6.45 | > 200000 | 1400 ± 97 | > 200000 | 986 ± 159 | < 75000 nM | only partial inhibition of parasite invasion | – | ≤ 1500 | permitted Pf development | > 100 | effect on merozoite egress and invasion ([7]; listed as 642550): slowed the schizont rupture |
| NC(N)=Nc1ccc(-c2ccc(-c3ccc(N=C(N)N)c(Cl)c3)o2)cc1Cl [MMV688271, 2-[2-chloro-4-[5-[3-chloro-4-(diaminomethylideneamino)phenyl]furan-2-yl]phenyl]guanidine] | 258 ± 54.2 | 119000 ± 33700 | 387 ± 39.6 | 29600 ± 3760 | 284 ± 24.7 | < 75000 nM and 20000 nM | schizontocidal activity; also recorded: completely prevented invasion/schizont rupture | additive (∑FIC 1–2.0) | ≤ 1500 | inhibited schizont egression | > 100 | Selectivity index A [14]: 478.31; Selectivity index B [15]: 119.08 |
| O=C1[C@H](CC[C@H](O)c2ccc(F)cc2)[C@@H](c2ccc(O)cc2)N1c1ccc(F)cc1 [MMV1581377, (3R,4S)-1-(4-fluorophenyl)-3-[(3S)-3-(4-fluorophenyl)-3-hydroxypropyl]-4-(4-hydroxyphenyl)azetidin-2-one] | – | – | – | – | – | 1160 nM | – | – | – | – | – | – |
| CC(C)(C)NC(=O)[C@@H]1CN(Cc2cnc3occc3c2)CCN1C[C@@H](O)C[C@@H](Cc1ccccc1)C(=O)N[C@H]1c2ccccc2C[C@H]1O [MMV1782353, (2S)-1-[(2S,4R)-4-benzyl-2-hydroxy-5-[[(1S,2R)-2-hydroxy-2,3-dihydro-1H-inden-1-yl]amino]-5-oxopentyl]-N-tert-butyl-4-(furo[2,3-b]pyridin-5-ylmethyl)piperazine-2-carboxamide] | 670 ± 70.2 | > 200000 | 14300 ± 210 | > 200000 | 562 ± 171 | – | only partial inhibition of parasite invasion | – | – | permitted Pf development | > 100 | effect on merozoite egress and invasion ([7]; listed as 1782353): slowed the schizont rupture; IC50 ([1]; read-out: IC50 Pf3D7): < 1000 nM; IC50 ([3]; read-out: IC50 PfCam3.1^R539T): > 1000 nM; IC50 ([5]; read-out: IC50 PfINDO): < 1000 nM |
